Assay results: US20240317706A1, “COMPOUNDS THAT MEDIATE PROTEIN DEGRADATION AND METHODS OF USE THEREOF” (Monte Rosa Therapeutics, Inc., priority 2021, published 2024)

Biological target: T1, CDK2 (Homo sapiens, UniProt P24941)
T1 construct: HEK293 clonal lines with CRISPR KI HiBiT tag on CDK2 proteins; host or cells: HEK293 clonal line, CRISPR knock-in HiBiT-CDK2, stably expressing LgBiT
Test: NanoBiT assay (CDK2 degradation)
Assay type: cell-based
Conditions: HEK293, HEK293 clonal line with CRISPR KI HiBiT tag on CDK2, Endurazine live cell substrate, 24 hours
Description: HEK293 clonal lines with CRISPR KI HiBiT tag on either CDK2 proteins and stably expressing LgBiT protein were obtained from Promega (Madison, WI). Cells were plated at 5000 cells per well using Multiflo (BioTek) in 384-well white solid bottom plates (Corning, 3570BC) in 25 ul volume in DMEM media (DMEM, high glucose, HEPES, no phenol red (ThermoFisher Scientific, 21063029)) containing 10% FBS (Corning, 35-075-CV), 1% Penicillin/Streptomycin ((ThermoFisher Scientific, 15140-122), and 1% Endurazine (Nano-Glo Endurazine Live Cell Substrate (Promega, N2571)). Cells were incubated for 16 hours at 37 C, 5% CO2. 75 nL of a compound at 30 μM were dosed into the plate using an Echo® 650 liquid handler (Labcyte). Cells were incubated at 37° C., 5% CO2 for 24 hours and then signal was read on a Pherastar FSX using “LUM plus” optic module.
Analysis was performed in Scinamic (Scinamic, Cambridge, MA). Luminescence response (R) was calculated by the formula: response=100*(S−N)/(P−N) where S is the signal of the well, N and P the mean negative and positive control values respectively of the same plate. The luminescence response was then fitted in Scinamic using a 3-parameter agonist logistic fit (hillslope=1, EC50>0, top/bottom unconstrained).

Compound	Dmax
CCC1(COC(=O)NCc2ccc3c(c2)C(=O)N(C2CCC(=O)NC2=O)C3)COC1 (stereo not drawn) [Compound 42, (3-ethyloxetan-3-yl)methyl N-{[2-(2,6-dioxopiperidin-3-yl)-3-oxo-2,3-dihydro-1H-isoindol-5-yl]methyl}carbamate]	10 to 50%
O=C1CCC(N2Cc3ccc(CNC(=O)OCC#CC4CC4)cc3C2=O)C(=O)N1 (stereo not drawn) [Compound 44, 3-cyclopropylprop-2-yn-1-yl N-{[2-(2,6-dioxopiperidin-3-yl)-3-oxo-2,3-dihydro-1H-isoindol-5-yl]methyl}carbamate]	10 to 50%
CC(=O)N1CCC(COC(=O)NCc2ccc3c(c2)C(=O)N(C2CCC(=O)NC2=O)C3)C1 (stereo not drawn) [Compound 50, (1-acetylpyrrolidin-3-yl)methyl N-{[2-(2,6-dioxopiperidin-3-yl)-3-oxo-2,3-dihydro-1H-isoindol-5-yl]methyl}carbamate]	≤ 10%
O=C1CCC(N2Cc3ccc(CNC(=O)OCC4CCCCS4)cc3C2=O)C(=O)N1 (stereo not drawn) [Compound 53, (thian-2-yl)methyl N-{[2-(2,6-dioxopiperidin-3-yl)-3-oxo-2,3-dihydro-1H-isoindol-5-yl]methyl}carbamate]	10 to 50%
CC(C)O[C@H]1C[C@@H](OC(=O)NCc2ccc3c(c2)C(=O)N(C2CCC(=O)NC2=O)C3)C1 (stereo partly drawn) [Compound 55, (1s,3s)-3-(propan-2-yloxy)cyclobutyl N-{[2-(2,6-dioxopiperidin-3-yl)-3-oxo-2,3-dihydro-1H-isoindol-5-yl]methyl}carbamate]	10 to 50%
COCC1(COC(=O)NCc2ccc3c(c2)C(=O)N(C2CCC(=O)NC2=O)C3)CCCC1 (stereo not drawn) [Compound 57, [1-(methoxymethyl)cyclopentyl]methyl N-{[2-(2,6-dioxopiperidin-3-yl)-3-oxo-2,3-dihydro-1H-isoindol-5-yl]methyl}carbamate]	≤ 10%
O=C1CCC(N2Cc3ccc(CNC(=O)OCC4CSC4)cc3C2=O)C(=O)N1 (stereo not drawn) [Compound 60, (thietan-3-yl)methyl N-{[2-(2,6-dioxopiperidin-3-yl)-3-oxo-2,3-dihydro-1H-isoindol-5-yl]methyl}carbamate]	10 to 50%
O=C1CCC(N2Cc3ccc(CNC(=O)OC[C@H]4[C@@H]5COC[C@@H]54)cc3C2=O)C(=O)N1 (stereo partly drawn) [Compound 61, [(1R,5S,6R)-3-oxabicyclo[3.1.0]hexan-6-yl]methyl N-{[2-(2,6-dioxopiperidin-3-yl)-3-oxo-2,3-dihydro-1H-isoindol-5-yl]methyl}carbamate]	≤ 10%

The remaining lines, values ahead:

Dmax	Compound
10 to 50%	C[C@@H]1CC[C@H](COC(=O)NCc2ccc3c(c2)C(=O)N(C2CCC(=O)NC2=O)C3)O1 (mixture of isomers) [Compound 68, rac-[(2R,5R)-5-methyloxolan-2-yl]methyl N-{[2-(2,6-dioxopiperidin-3-yl)-3-oxo-2,3-dihydro-1H-isoindol-5-yl]methyl}carbamate]
≤ 10%	O=C1CCC(N2Cc3ccc(CNC(=O)OC[C@@H]4C[C@H]4F)cc3C2=O)C(=O)N1 (mixture of isomers) [Compound 75, rac-[(1R,2S)-2-fluorocyclopropyl]methyl N-{[2-(2,6-dioxopiperidin-3-yl)-3-oxo-2,3-dihydro-1H-isoindol-5-yl]methyl}carbamate]
≤ 10%	C[C@@H]1CCOC1COC(=O)NCc1ccc2c(c1)C(=O)N(C1CCC(=O)NC1=O)C2 (mixture of isomers) [Compound 76, rac-[(2R,3S)-3-methyloxolan-2-yl]methyl N-{[2-(2,6-dioxopiperidin-3-yl)-3-oxo-2,3-dihydro-1H-isoindol-5-yl]methyl}carbamate]
≤ 10%	O=C1CCC(N2Cc3ccc(CNC(=O)O[C@H]4C[C@@H]5C[C@H]4CC5(F)F)cc3C2=O)C(=O)N1 (mixture of isomers) [Compound 92, rac-(1R,2R,4R)-5,5-difluorobicyclo[2.2.1]heptan-2-yl N-{[2-(2,6-dioxopiperidin-3-yl)-3-oxo-2,3-dihydro-1H-isoindol-5-yl]methyl}carbamate]
